Assay results from paper PMC11823630, “In vitro potentiation of tetracyclines in Pseudomonas aeruginosa by RW01, a new cyclic peptide” (Antimicrobial Agents and Chemotherapy, 2024).
≈ marks a conversion by molar mass, not a printed value.

How the values were obtained:
Experiment in all cases: MIC, MHB microdilution
[1] = system: PAO1 mutant MIN8_4, pilZ(nt18InsT); conditions: Pseudomonas aeruginosa, PAO1, read-out: MIC, MHB microdilution
[2] = system: PAO1 mutant MIN8_1, nalD(R3C), pilM(Q62X); conditions: Pseudomonas aeruginosa, PAO1, read-out: MIC, MHB microdilution
[3] = system: P. aeruginosa PAO1, WT

In the case of CN(C)c1ccc(O)c2c1C[C@H]1C[C@H]3[C@H](N(C)C)C(O)=C(C(N)=O)C(=O)[C@@]3(O)C(O)=C1C2=O [Minocycline, minocycline], the MIC [1] is reported as 16 µg/mL (≈ 35 µM), the MIC [2] is reported as 16 µg/mL (≈ 35 µM) and the “MIC of MIN + RW01, MHB microdilution” value ([3]; PAO1 WT, minocycline MIC in combination with RW01, listed as MIN) is reported as 0.5 to 1 µg/mL. The MIC ([3]; Pseudomonas aeruginosa, PAO1, read-out: MIC, MHB microdilution) was 4 to 8 µg/mL (≈ 8.74 to 17.5 µM).
